Data taken from patent US4619942A, “Inhibition of Respiratory Syncytial virus-induced cell fusion by amidino compounds” (priority 1983, dated 1986).
Where two headings read alike, the source gives them in different places.

Assays:
[1] = test system: Hep-2 cells
[2] = test system: RS virus; test: RS virus cytopathology / syncytium formation in Hep-2 cells (Table 3); conditions: for Effect on RS virus cytopathology (syncytia) / Suppression of RS virus syncytia (in words): Hep-2; for Effect on RS virus cytopathology (syncytia): added 2 hour post infection
[3] = test system: RS virus; conditions: moi 1-2, control titers 1-5 × 10^7
[4] = test system: cell growth; conditions: cited from earlier work
[5] = test system: CV-1
[6] = test system: BHK-21
[7] = test system: A549

With `N=C(N)c1ccc2nc[nH]c2c1` [Compound 11, 5-Amidinobenzimidazole] the “Cytotoxicity relative to other compounds (in words)” value [1] was “possessed the same or even less toxic activity than benzamidine”, the “Inhibition of RS virus / RS virus-induced cell fusion (general statement)” value [2] was “inhibitively effective against RS virus” and the “Effect on RS virus cytopathology (syncytia)” value ([2]; 1.0 μM) was “S”. The “Effect on RS virus cytopathology (syncytia)” value ([2]; 10 μM) was “S”, the “Suppression of RS virus syncytia (in words)” value (from here on “Suppression”) [2] was “suppressed the appearance of the characteristic syncytia” and the “Single cycle yield of RS virus (RS virus titers)” value (shortened to “Single cycle yield of RS virus”) ([3]; 100 μM) was 8.7 × 10^7 TCID50/ml.

With `N=C(N)c1ccc2nc(CCc3nc4ccc(C(=N)N)cc4[nH]3)[nH]c2c1` [Compound 8, 1,2-Bis(5-amidino-2-benzimidazolyl)ethane] the “Inhibition of RS virus / RS virus-induced cell fusion (general statement)” value [2] was “inhibitively effective against RS virus”, the “Effect on RS virus cytopathology (syncytia)” value ([2]; 0.1 μM) was “S” and the “Effect on RS virus cytopathology (syncytia)” value ([2]; 1.0 μM) was “S”. For the same compound, the “Suppression” value [2] was “lower activity”, the “Single cycle yield of RS virus” value ([3]; 10 μM) was 6.3 × 10^7 TCID50/ml and the “Single cycle yield of RS virus” value ([3]; 100 μM) was 7.9 × 10^7 TCID50/ml.

In the case of `N=C(N)c1ccc2occc2c1` [Compound 10, 5-Amidinobenzofuran], the “Effect on RS virus cytopathology (syncytia)” value ([2]; 10 μM) is reported as “S”, the “Effect on RS virus cytopathology (syncytia)” value ([2]; 100 μM) is reported as “S” and the “Single cycle yield of RS virus” value ([3]; 10 μM) is reported as 1.1 × 10^7 TCID50/ml. The “Single cycle yield of RS virus” value ([3]; 100 μM) was 6.3 × 10^7 TCID50/ml.

In the case of `N=C(N)c1ccc(Cn2ccc3cc(C(=N)N)ccc32)cc1` [Compound 13, 5-Amidino-1-(4-amidinobenzyl)indole], the “Cytotoxicity relative to other compounds (in words)” value [1] is reported as “intermediate in their cytotoxicity”, the “Inhibition of RS virus / RS virus-induced cell fusion (general statement)” value [2] is reported as “inhibitively effective against RS virus” and the “Effect on RS virus cytopathology (syncytia)” value ([2]; 0.1 μM) is reported as “S”. The “Effect on RS virus cytopathology (syncytia)” value ([2]; 1.0 μM) was “S” and the “Suppression” value [2] was “suppressed the appearance of the characteristic syncytia”.

For `N=C(N)c1ccccc1` [Compound 1, Benzamidine, reference compound], the “Effect on RS virus cytopathology (syncytia)” value ([2]; 50 μM) is listed as “S”, the “Concentration reducing cell growth rates” value [4] is listed as “greater than 500 μM” and the “Single cycle yield of RS virus” value ([3]; 50 μM) is listed as 1.1 × 10^7 TCID50/ml.

With `N=C(N)c1ccc(OCCCCCCCCOc2ccccc2)cc1` [Compound 4, 1-(4-Amidinophenoxy)-8-phenoxyoctane] the “Effect on RS virus cytopathology (syncytia)” value ([2]; 10 μM) was “S” and the “Single cycle yield of RS virus” value ([3]; 10 μM) was 3.5 × 10^7 TCID50/ml.

In the case of `N=C(N)c1ccc(OCCCCCCOc2ccccc2)cc1` [Compound 3, 1-(4-Amidinophenoxy-6-phenoxyhexane], the “Pattern of toxicity compared with Hep-2 cells” value [5] is reported as “identical pattern of toxicity”, the “Effect on RS virus cytopathology (syncytia)” value ([2]; 10 μM) is reported as “S” and the “Single cycle yield of RS virus” value ([3]; 10 μM) is reported as 3.5 × 10^7 TCID50/ml. The “Pattern of toxicity compared with Hep-2 cells” value [6] was “identical pattern of toxicity” and the “Pattern of toxicity compared with Hep-2 cells” value [7] was “identical pattern of toxicity”.

In the case of `N=C(N)c1ccc2[nH]ccc2c1` [Compound 9, 5-Amidinoindole], the “Inhibition of RS virus / RS virus-induced cell fusion (general statement)” value [2] is reported as “inhibitively effective against RS virus”, the “Effect on RS virus cytopathology (syncytia)” value ([2]; 0.1 μM) is reported as “S” and the “Effect on RS virus cytopathology (syncytia)” value ([2]; 1.0 μM) is reported as “S”. The “Single cycle yield of RS virus” value ([3]; 10 μM) was 2.9 × 10^7 TCID50/ml and the “Single cycle yield of RS virus” value ([3]; 100 μM) was 6.3 × 10^7 TCID50/ml.

For `Cn1ccc2cc(C(=N)N)ccc21` [Compound 12, 5-Amidino-1-methylindole], the “Cytotoxicity relative to other compounds (in words)” value [1] was “intermediate in their cytotoxicity”, the “Inhibition of RS virus / RS virus-induced cell fusion (general statement)” value [2] was “inhibitively effective against RS virus” and the “Suppression” value [2] was “suppressed the appearance of the characteristic syncytia”.
